# Laboratory results from PMC8780964, “Evaluation of the Pharmacokinetics of the Pancreastatin Inhibitor PSTi8 Peptide in Rats: Integration of In Vitro and In Vivo Findings” (Molecules, 2022).
# Assay: Microsomal metabolic stability study
# Assay type: in vitro ADME, SD rats
# Settings: 25 µM, RLM
# Description: RLM was prepared from SD rats from our lab, as previously reported. In vitro metabolic stability of PSTi8 was determined using RLM. The reaction milieu was prepared by adding 50 mM Tris buffer (pH 7.4), 40 mM MgCl2 pre-incubated at 37 °C along with RLM (0.5 mg/mL) and spiked at a concentration (5 µM) of PSTi8. The reaction was started with NADPH (1 mM) and without NADPH (negative control using Tris buffer). A total of 100 µL samples were collected at 0, 5, 15, 30, 45 and 60 min, and the reaction was quenched with liquid nitrogen. Samples were processed with the SPE procedure and analyzed using the LC-MS/MS method. Negative control was used to assess the peptide stability in the reaction milieu and the positive control (Testosterone, 25 µM) was incubated to obtain the microsomal activity.
structure (smiles),measurement,value
"C[C@]12CC[C@H]3[C@@H](CCC4=CC(=O)CC[C@@]43C)[C@@H]1CC[C@@H]2O [testosterone, reference compound]",half-life of positive control,within the acceptable in-house limits
